Reference: US20220306695A1, “COMPSTATIN ANALOGUES AND THEIR MEDICAL USES” (priority 2019, published 2022)
Positions of bridges follow the written chain, without caps; N, C: chain ends. Non-standard residues stand in square brackets, D forms with d. Residues, ends and D or L forms follow the SMILES beside them. Trp(1-Me) = Cn1cc(C[C@H](N)C(=O)O)c2ccccc21; Sar = CNCC(=O)O

Experiments:
[1] = Solubility test at 10 mg/mL (visual inspection and light scattering); assay type: physicochemical; conditions: for Solubility, Condition 1 Acetate pH 4: 10 mg/mL compound in 100 mM acetate pH 4; for Solubility, Condition 2 Acetate pH 5: 10 mg/mL compound in 100 mM acetate pH 5; for Solubility, Condition 3 Phosphate pH 6: 10 mg/mL compound in 100 mM phosphate pH 6; for Solubility, Condition 4 Phosphate pH 7: 10 mg/mL compound in 100 mM phosphate pH 7; for Solubility, Condition 5 Phosphate pH 7.5: 10 mg/mL compound in 100 mM phosphate pH 7.5
Method: The solubility of compounds was assessed by measuring light scattering over a pH interval from pH 4 to pH 7.5.
Compounds were dissolved in a stock solution of 20 mg/mL in H2O at pH 2.5 or pH 10.
These stock solutions were diluted 1:1 with 200 mM buffered solution to reach a final solution of 10 mg/mL compound in 100 mM buffer. The 5 investigated conditions were (1) acetate pH 4.0, (2) acetate pH 5.0, (3) phosphate pH 6.0, (4) phosphate pH 7 and (5) phosphate pH 7.5.
Visual inspection included manually checking the 96 well plate for wells that are clear or non-clear. In addition to this a picture of the 96 well plate is taken.
Absorbance was measured at four wavelengths: 280 nm, 325 nm, 340 nm and 360 nm in an UV transparent 96 well microplate in a SpectraMax 190 microplate reader (Molecular Devices).
The criteria for this was a combination of visual inspection and light scattering not exceeding 0.1 AU, where values below 0.1 AU are good in visually clear samples. […]

[2] = system: classical complement pathway; assay: In vitro haemolysis assay (inhibition of classical complement pathway); assay type: cell-based, human; conditions: Table 3; human serum, sensitized sheep red blood cells; read-out: IC50[nM], in vitro analysis of inhibition of hemolysis
Summary of the method: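 Serially diluted compound (9 points) was preincubated 15 min at room temperature with diluted human serum, titrated per batch to give 70-90% maximal haemolysis, in Tris/casein buffer pH 7.4 with Mg2+/Ca2+. Antibody-sensitized sheep erythrocytes were then added for 30 min at 37° C, and the reaction was stopped with EDTA. Haemolysis was read at A405, with IC50 from 4PL fit.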

| Compound | Solubility, Condition 1 Acetate pH 4 [1] | Solubility, Condition 2 Acetate pH 5 [1] | Solubility, Condition 3 Phosphate pH 6 [1] | Solubility, Condition 4 Phosphate pH 7 [1] | Solubility, Condition 5 Phosphate pH 7.5 [1] | IC50 [2] |
| --- | --- | --- | --- | --- | --- | --- |
| CC[C@H](C)[C@@H]1NC(=O)[C@@H](NC(=O)CN(C)C(=O)[C@H](CCC(=O)O)NC(=O)[C@H](CO)NC(C)=O)CSSC[C@@H](C(=O)N(C)CC(=O)N[C@@H](CCC(=O)O)C(=O)N[C@@H](C)C(N)=O)NC(=O)[C@H](CCCNC(=N)N)NC(=O)[C@H](Cc2c[nH]cn2)NC(=O)[C@H](CCC(=O)O)NC(=O)CNC(=O)[C@H](Cc2c[nH]c3ccccc23)NC(=O)[C@H](CC(=O)O)NC(=O)[C@H](CCC(N)=O)NC(=O)[C@H](Cc2cn(C)c3ccccc23)NC1=O [Compound 81] (Ac-SE[Sar]CI[Trp(1-Me)]QDWGEHRC[Sar]EA-NH2; disulfide 4-14) | − (denotes lack of solubility at the given condition, as UV absorbance at 340 nm exceeds 0.1 AU and/or it is visibly turbid or contains particles.) | − (denotes lack of solubility at the given condition, as UV absorbance at 340 nm exceeds 0.1 AU and/or it is visibly turbid or contains particles.) | + (denotes solubility at the given condition, as determined by UV absorbance being less than 0.1 AU at 340 nm and the sample being clear when manually inspected.) | + (denotes solubility at the given condition, as determined by UV absorbance being less than 0.1 AU at 340 nm and the sample being clear when manually inspected.) | + (denotes solubility at the given condition, as determined by UV absorbance being less than 0.1 AU at 340 nm and the sample being clear when manually inspected.) | < 100 nM |
| CC[C@H](C)[C@@H]1NC(=O)[C@@H](NC(=O)[C@H](Cc2ccccc2)NC(=O)[C@H](CCC(=O)O)NC(=O)[C@H](CO)NC(C)=O)CSSC[C@@H](C(=O)N(C)CC(=O)N[C@@H](CCC(=O)O)C(N)=O)NC(=O)[C@H](CCCNC(=N)N)NC(=O)[C@H](Cc2c[nH]cn2)NC(=O)[C@H](CCC(=O)O)NC(=O)CN(C)C(=O)[C@H](Cc2c[nH]c3ccccc23)NC(=O)[C@H](CC(=O)O)NC(=O)[C@H](CCC(N)=O)NC(=O)[C@H](Cc2cn(C)c3ccccc23)NC1=O [Compound 79, Ac-SEFC(1)I[1-Me-Trp]QDW[Sar]EHRC(1)[Sar]E-NH2] (Ac-SEFCI[Trp(1-Me)]QDW[Sar]EHRC[Sar]E-NH2; disulfide 4-14) | − (denotes lack of solubility at the given condition, as UV absorbance at 340 nm exceeds 0.1 AU and/or it is visibly turbid or contains particles.) | − (denotes lack of solubility at the given condition, as UV absorbance at 340 nm exceeds 0.1 AU and/or it is visibly turbid or contains particles.) | + (denotes solubility at the given condition, as determined by UV absorbance being less than 0.1 AU at 340 nm and the sample being clear when manually inspected.) | + (denotes solubility at the given condition, as determined by UV absorbance being less than 0.1 AU at 340 nm and the sample being clear when manually inspected.) | + (denotes solubility at the given condition, as determined by UV absorbance being less than 0.1 AU at 340 nm and the sample being clear when manually inspected.) | < 100 nM |
| CC[C@H](C)[C@H](NC(C)=O)C(=O)N[C@H]1CSSC[C@@H](C(=O)N[C@H](C(=O)N[C@@H](CCC(=O)O)C(=O)N[C@@H](C)C(N)=O)[C@@H](C)O)NC(=O)[C@H](CCCNC(=N)N)NC(=O)[C@H](Cc2c[nH]cn2)NC(=O)[C@H](CCC(=O)O)NC(=O)CNC(=O)[C@H](Cc2c[nH]c3ccccc23)NC(=O)[C@H](CC(=O)O)NC(=O)[C@H](CCC(N)=O)NC(=O)[C@H](Cc2c[nH]c3ccccc23)NC(=O)[C@H]([C@@H](C)CC)NC1=O [Compound 25] (Ac-ICIWQDWGEHRCTEA-NH2; disulfide 2-12) | + (denotes solubility at the given condition, as determined by UV absorbance being less than 0.1 AU at 340 nm and the sample being clear when manually inspected.) | − (denotes lack of solubility at the given condition, as UV absorbance at 340 nm exceeds 0.1 AU and/or it is visibly turbid or contains particles.) | − (denotes lack of solubility at the given condition, as UV absorbance at 340 nm exceeds 0.1 AU and/or it is visibly turbid or contains particles.) | + (denotes solubility at the given condition, as determined by UV absorbance being less than 0.1 AU at 340 nm and the sample being clear when manually inspected.) | + (denotes solubility at the given condition, as determined by UV absorbance being less than 0.1 AU at 340 nm and the sample being clear when manually inspected.) | < 100 nM |
| CC[C@H](C)[C@H](NC(C)=O)C(=O)N[C@H]1CSSC[C@@H](C(=O)N[C@H](C(=O)NCC(=O)N[C@@H](C)C(=O)N[C@@H](CCC(=O)O)C(=O)N[C@@H](CO)C(N)=O)[C@@H](C)O)NC(=O)[C@H](CCCNC(=N)N)NC(=O)[C@H](Cc2c[nH]cn2)NC(=O)[C@H](CCC(=O)O)NC(=O)CNC(=O)[C@H](Cc2c[nH]c3ccccc23)NC(=O)[C@H](CC(=O)O)NC(=O)[C@H](CCC(N)=O)NC(=O)[C@H](Cc2cn(C)c3ccccc23)NC(=O)[C@H]([C@@H](C)CC)NC1=O [Compound 51] (Ac-ICI[Trp(1-Me)]QDWGEHRCTGAES-NH2; disulfide 2-12) | − (denotes lack of solubility at the given condition, as UV absorbance at 340 nm exceeds 0.1 AU and/or it is visibly turbid or contains particles.) | − (denotes lack of solubility at the given condition, as UV absorbance at 340 nm exceeds 0.1 AU and/or it is visibly turbid or contains particles.) | + (denotes solubility at the given condition, as determined by UV absorbance being less than 0.1 AU at 340 nm and the sample being clear when manually inspected.) | + (denotes solubility at the given condition, as determined by UV absorbance being less than 0.1 AU at 340 nm and the sample being clear when manually inspected.) | + (denotes solubility at the given condition, as determined by UV absorbance being less than 0.1 AU at 340 nm and the sample being clear when manually inspected.) | < 100 nM |
| CC[C@H](C)[C@@H]1NC(=O)[C@@H](NC(=O)[C@@H](NC(=O)[C@H](CCC(=O)O)NC(=O)[C@H](CO)NC(=O)[C@H](CCC(=O)O)NC(C)=O)[C@@H](C)CC)CSSC[C@@H](C(=O)N[C@H](C(N)=O)[C@@H](C)O)NC(=O)[C@H](CCCNC(=N)N)NC(=O)[C@H](Cc2c[nH]cn2)NC(=O)[C@H](CCC(=O)O)NC(=O)CNC(=O)[C@H](Cc2c[nH]c3ccccc23)NC(=O)[C@H](CC(=O)O)NC(=O)[C@H](CCC(N)=O)NC(=O)[C@H](Cc2c[nH]c3ccccc23)NC1=O [Compound 31] (Ac-ESEICIWQDWGEHRCT-NH2; disulfide 5-15) | + (denotes solubility at the given condition, as determined by UV absorbance being less than 0.1 AU at 340 nm and the sample being clear when manually inspected.) | + (denotes solubility at the given condition, as determined by UV absorbance being less than 0.1 AU at 340 nm and the sample being clear when manually inspected.) | + (denotes solubility at the given condition, as determined by UV absorbance being less than 0.1 AU at 340 nm and the sample being clear when manually inspected.) | + (denotes solubility at the given condition, as determined by UV absorbance being less than 0.1 AU at 340 nm and the sample being clear when manually inspected.) | + (denotes solubility at the given condition, as determined by UV absorbance being less than 0.1 AU at 340 nm and the sample being clear when manually inspected.) | < 100 nM |
